The source of these data is patent US9499550B2 (BRISTOL-MYERS SQUIBB COMPANY, priority 2012, dated 2016).

Usually EC50 stands for the midpoint of the concentration-response curve.

SMILES strings stand for the structures.

The test system of assay [1] is HCV genotype 1b (Con1) replicon in HUH-7 cells. The experiment in a line: HCV replicon luciferase reporter assay, genotype 1b. It is filed as cell-based. As to conditions: Hepatitis C virus, Huh-7, 72 h, HCV genotype 1b replicon luciferase assay, 3 days incubation, range class, read-out: LE_1b (EC50, range). In short, it runs like this: (§1)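 Replicon inhibition for both genotypes was measured as Renilla luciferase signal (EnduRen, 7.5 μM final, 2 h) after 3-day, 37° C exposure of replicon-bearing HUH-7 cells in 4% FCS DMEM, 0.5% DMSO. The 1b construct carries S1179I; the 1a H77 construct carries P1496L and S2204I. Twenty-point, 3-fold dilutions were fitted four-parametrically for EC50, and CC50 was taken from multiplexed Cell Titer-Blue.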
(Replicon systems follow genome replication, usually without infectious particles.)

Assay [2] has as its system HCV genotype 1a (H77 strain) replicon in HUH-7 cells. Description: HCV replicon luciferase reporter assay, genotype 1a. It is filed as cell-based. As to conditions: Hepatitis C virus, Huh-7, 72 h, HCV genotype 1a replicon luciferase assay, 3 days incubation, range class, read-out: LE_1a (EC50, range). A digest of the protocol: as §1

As for `COc1ccc2c(O[C@@H]3C[C@H]4C(=O)N[C@]5(C(=O)NS(=O)(=O)C6CC6)C[C@H]5/C=C\CC[C@@H](C)C[C@@H](C)[C@H](NC(=O)OC(C)(C)C(F)(F)F)C(=O)N4C3)nccc2c1F` [Compound 3150, 1,1,1-trifluoro-2-methylpropan-2-yl((2R,6S,7R,9R,13aS,14aR,16aS,Z)-14a-((cyclopropylsulfonyl)carbamoyl)-2-((5-fluoro-6-methoxyisoquinolin-1-yl)oxy)-7,9-dimethyl-5,16-dioxo-1,2,3,5,6,7,8,9,10,11,13a,14,14a,15,16,16a-hexadecahydrocyclopropa[e]pyrrolo[1,2-a][1,4]diazacyclopentadecin-6-yl)carbamate], the EC50 in assay [1] and in assay [2] was under 5.46 nM in each case.
`COc1ccc2c(O[C@@H]3C[C@H]4C(=O)N[C@]5(C(=O)NS(=O)(=O)C6CC6)C[C@H]5/C=C\CC[C@H](C)C[C@@H](C)[C@H](NC(=O)O[C@@H]5C[C@@H]6C[C@@H]6C5)C(=O)N4C3)nccc2c1F` [Compound 3151, (1R,3r,5S)-bicyclo[3.1.0]hexan-3-yl((2R,6S,7R,9S,13aS,14aR,16aS,Z)-14a-((cyclopropylsulfonyl)carbamoyl)-2-((5-fluoro-6-methoxyisoquinolin-1-yl)oxy)-7,9-dimethyl-5,16-dioxo-1,2,3,5,6,7,8,9,10,11,13a,14,14a,15,16,16a-hexadecahydrocyclopropa[e]pyrrolo[1,2-a][1,4]diazacyclopentadecin-6-yl)carbamate]: the EC50 was under 5.46 nM in assay [1] and 4.82 to 103 nM in assay [2].
In the same order, the values of `COc1ccc2c(O[C@@H]3C[C@H]4C(=O)N[C@]5(C(=O)NS(=O)(=O)C6CC6)C[C@H]5/C=C\CC[C@@H](C)C[C@@H](C)[C@H](NC(=O)O[C@@H]5C[C@@H]6C[C@@H]6C5)C(=O)N4C3)nccc2c1F` [Compound 3152, (1R,3r,5S)-bicyclo[3.1.0]hexan-3-yl((2R,6S,7R,9R,13aS,14aR,16aS,Z)-14a-((cyclopropylsulfonyl)carbamoyl)-2-((5-fluoro-6-methoxyisoquinolin-1-yl)oxy)-7,9-dimethyl-5,16-dioxo-1,2,3,5,6,7,8,9,10,11,13a,14,14a,15,16,16a-hexadecahydrocyclopropa[e]pyrrolo[1,2-a][1,4]diazacyclopentadecin-6-yl)carbamate] are under 5.46 nM and under 5.46 nM.
In the same order, the values of `COc1cc(F)cc2c(O[C@@H]3C[C@H]4C(=O)N[C@]5(C(=O)NS(=O)(=O)C6(C)CC6)C[C@H]5/C=C\CC[C@H](C)C[C@@H](C)[C@H](NC(=O)OC(C)(C)C)C(=O)N4C3)nccc12` [Compound 3153, tert-butyl ((2R,6S,7R,9S,13aS,14aR,16aS,Z)-2-((7-fluoro-5-methoxyisoquinolin-1-yl)oxy)-7,9-dimethyl-14a-(((1-methylcyclopropyl)sulfonyl)carbamoyl)-5,16-dioxo-1,2,3,5,6,7,8,9,10,11,13a,14,14a,15,16,16a-hexadecahydrocyclopropa[e]pyrrolo[1,2-a][1,4]diazacyclopentadecin-6-yl)carbamate] are 4.82 to 103 nM and 4.82 to 103 nM.
In the case of `COc1cc(F)cc2c(O[C@@H]3C[C@H]4C(=O)N[C@]5(C(=O)NS(=O)(=O)C6(C)CC6)C[C@H]5/C=C\CC[C@@H](C)C[C@@H](C)[C@H](NC(=O)OC(C)(C)C)C(=O)N4C3)nccc12` [Compound 3154, tert-butyl ((2R,6S,7R,9R,13aS,14aR,16aS,Z)-2-((7-fluoro-5-methoxyisoquinolin-1-yl)oxy)-7,9-dimethyl-14a-(((1-methylcyclopropyl)sulfonyl)carbamoyl)-5,16-dioxo-1,2,3,5,6,7,8,9,10,11,13a,14,14a,15,16,16a-hexadecahydrocyclopropa[e]pyrrolo[1,2-a][1,4]diazacyclopentadecin-6-yl)carbamate], the EC50 in assay [1] and in assay [2] was under 5.46 nM throughout.
For `COc1cc(F)cc2c(O[C@@H]3C[C@H]4C(=O)N[C@]5(C(=O)NS(=O)(=O)C6(C)CC6)C[C@H]5/C=C\CC[C@H](C)C[C@@H](C)[C@H](NC(=O)OC(C)(C)C(F)(F)F)C(=O)N4C3)nccc12` [Compound 3155, 1,1,1-trifluoro-2-methylpropan-2-yl((2R,6S,7R,9S,13aS,14aR,16aS,Z)-2-((7-fluoro-5-methoxyisoquinolin-1-yl)oxy)-7,9-dimethyl-14a-(((1-methylcyclopropyl)sulfonyl)carbamoyl)-5,16-dioxo-1,2,3,5,6,7,8,9,10,11,13a,14,14a,15,16,16a-hexadecahydrocyclopropa[e]pyrrolo[1,2-a][1,4]diazacyclopentadecin-6-yl)carbamate], the EC50 in assay [1] and in assay [2] was 4.82 to 103 nM each time.
`COc1cc(F)cc2c(O[C@@H]3C[C@H]4C(=O)N[C@]5(C(=O)NS(=O)(=O)C6(C)CC6)C[C@H]5/C=C\CC[C@@H](C)C[C@@H](C)[C@H](NC(=O)OC(C)(C)C(F)(F)F)C(=O)N4C3)nccc12` [Compound 3156, 1,1,1-trifluoro-2-methylpropan-2-yl((2R,6S,7R,9R,13aS,14aR,16aS,Z)-2-((7-fluoro-5-methoxyisoquinolin-1-yl)oxy)-7,9-dimethyl-14a-(((1-methylcyclopropyl)sulfonyl)carbamoyl)-5,16-dioxo-1,2,3,5,6,7,8,9,10,11,13a,14,14a,15,16,16a-hexadecahydrocyclopropa[e]pyrrolo[1,2-a][1,4]diazacyclopentadecin-6-yl)carbamate]: the EC50 in assay [1] and in assay [2] was under 5.46 nM each time.
On to `COc1cc(F)cc2c(O[C@@H]3C[C@H]4C(=O)N[C@]5(C(=O)NS(=O)(=O)C6(C)CC6)C[C@H]5/C=C\CC[C@H](C)C[C@@H](C)[C@H](NC(=O)O[C@H](C)C(F)(F)F)C(=O)N4C3)nccc12` [Compound 3157, (R)-1,1,1-trifluoropropan-2-yl ((2R,6S,7R,9S,13aS,14aR,16aS,Z)-2-((7-fluoro-5-methoxyisoquinolin-1-yl)oxy)-7,9-dimethyl-14a-(((1-methylcyclopropyl)sulfonyl)carbamoyl)-5,16-dioxo-1,2,3,5,6,7,8,9,10,11,13a,14,14a,15,16,16a-hexadecahydrocyclopropa[e]pyrrolo[1,2-a][1,4]diazacyclopentadecin-6-yl)carbamate], for which the EC50 in assay [1] was under 5.46 nM; in assay [2] it was 4.82 to 103 nM.
For `COc1cc(F)cc2c(O[C@@H]3C[C@H]4C(=O)N[C@]5(C(=O)NS(=O)(=O)C6(C)CC6)C[C@H]5/C=C\CC[C@@H](C)C[C@@H](C)[C@H](NC(=O)O[C@H](C)C(F)(F)F)C(=O)N4C3)nccc12` [Compound 3158, (R)-1,1,1-trifluoropropan-2-yl ((2R,6S,7R,9R,13aS,14aR,16aS,Z)-2-((7-fluoro-5-methoxyisoquinolin-1-yl)oxy)-7,9-dimethyl-14a-(((1-methylcyclopropyl)sulfonyl)carbamoyl)-5,16-dioxo-1,2,3,5,6,7,8,9,10,11,13a,14,14a,15,16,16a-hexadecahydrocyclopropa[e]pyrrolo[1,2-a][1,4]diazacyclopentadecin-6-yl)carbamate], the EC50 in assay [1] and in assay [2] was under 5.46 nM in each case.
